Assay results reported in US6803203B1, “DNA-PK assay” (Brookhaven Science Associates, priority 1993, dated 2004).
Entries after “also recorded” stand apart in the source; their conditions may differ. No end group written: not given here.

Legend:
DNA-PK [1] = target: T1, DNA-PK (Homo sapiens, UniProt P78527); experiment: Poorer substrate peptides added to (SEQ ID NO: 8) phosphorylation assays; assay type: biochemical; conditions: peptide up to 250 μM; (SEQ ID NO: 8) at 100 μM
T1 construct: DNA-PK was purified from HeLa cells; endogenous in cells; host or cells: HeLa S3 cells; the endogenous enzyme was purified in house by chromatography

DNA-PK [2] = experiment: Phosphorylation of synthetic peptides in crude cell extracts (L 929); assay type: biochemical, mouse; conditions: peptide 200 μM, 10 min 30° C.
Method: To examine cells for DNA-PK content, extracts from HeLa, T98G human glioblastoma, and mouse L 929 cells were prepared by freeze-thaw lysis of cells harvested from five nearly confluent 9-cm-diameter plates as described in Example 1 and by Lees-Miller, et al. J. Biol. Chem., 264:2431-2437 (1989). T98G (ATCC CRL 1690) is a human glioblastoma cell line; L-929 (ATCC CCL 1) was derived from connective tissue of the NCTC 2071 mouse. Based on earlier work with natural protein substrates, it was expected that extracts of HeLa and T98G cells would contain a significant amount of DNA-PK activity while the extracts of mouse L 929 would contain little, if any, DNA-PK activity. Lysates in low-salt buffer were centrifuged at 10,000×g, to give a supernatant fraction (designated S10) and pellets (designated P10). The pellets were washed by resuspension in a high salt buffer (0.5 M KCl, 25 mM N-2-hydroxyethylpiperazine-N′-2-ethanesulfonic acid (HEPES; pH 7.5), 10 mM MgCl2, 1 mM dithiothreitol) and were sonicated. The sonicated suspension was centrifuged at 10,000×g for 10 min to give a second supernatant fraction (designated P10S), which was diluted with buffer lacking KCl to give a volume equal to that of the original supernatant (S10). Protein concentrations, determined using the Bio-Rad dye-binding assay, were as follows: HeLa S10, 3 mg/ml; HeLa P10S, 1 mg/ml; T98G S10, 3.5 mg/ml;,T98G P10S, 1 mg/ml; L-929 S10, 1 mg/ml; and L-929 P10S, 0.3 mg/ml. These extracts were assayed for the ability to phosphorylate (SEQ ID NOS: 11 and 20) with and without added calf thymus DNA.

DNA-PK [3] = experiment: DNA-PK activity in extracts of hamster cell lines; assay type: biochemical, Chinese hamster; conditions: peptide 0.2 mM; for Specific Activity + DNA: + calf thymus DNA 10 μg/ml; for Specific Activity − DNA: no added DNA
Method: Extracts of additional primate and rodent cells were tested for the presence of DNA-PK activity in accordance with the method of the present invention. The DNA-PK activity was determined using the methods described in Examples 1, 4 and 5 for seven human cell lines, two African green monkey kidney lines, and six rodent cell lines.
Extracts were prepared essentially as described in Example 10. Cells were lysed by freezing and thawing in hypotonic buffer; soluble (S10) “cytoplasmic” and insoluble in (P10) “nuclear” fractions were made by centrifuging lysates at 10,000×g for 10 min. The insoluble fraction was extracted with buffer containing 0.5 M KCl, which releases any DNA-PK that is bound to DNA. After centrifugation of the salt-washed pellet fraction, which removed the remaining insoluble material, the salt extract (P10S) was diluted and assayed as previously described.
Protein concentrations, determined using the Bio-Rad dye binding assay, were between 0.3 and 6 mg/ml. Extracts were incubated at 30° C. for 10 min with each peptide at 0.2 mM in the absence of added DNA (−DNA) or with 10 μg/ml calf thymus DNA (+DNA). After incubation the reaction mixtures were acidified with an equal volume of 30% acetic acid and spotted on to Whatman P-81 phosphocellulose paper (Whatman, Inc., Clifton, N.J.). The filters then were washed extensively in 15% acetic acid before the adsorbed radioactivity was quantitated as described in Example 5.
The amount of phosphate incorporated was calculated from the specific activity of the ATP. The rate of phosphate incorporation into the Ser-Gln-Glu peptide (Table 1) (SEQ ID NO: 11) in the presence of calf thymus DNA was approximately linear throughout the 10 minute reaction incubation period. Parallel assays were performed without added peptide, and these background values were subtracted to produce the activities that are shown in Table 3. Background values varied but, in all cases, were less than 0.2 nmol/min/mg (a few percent of the activity present in human cells). The specific activities were calculated from the total activity in the two fractions divided by the total protein in the two fractions. The percent of total DNA-PK activity in the S10 and P10S fractions was determined with peptide (SEQ ID NO: 11) in the presence of added calf thymus DNA. Extracts without substantial DNA-PK activity were examined for their ability to inhibit purified DNA-PK. Inhibitory activity was not detected.

DNA-PK [4] = target: T1, DNA-PK; experiment: Phosphorylation of synthetic peptides by purified DNA-PK (phosphocellulose paper binding method); assay type: biochemical
Method: Phenylmethylsulfonyl fluoride was added to the S10 (10,000×g) supernatant as a powder to 0.5 mM. DNA-PK activity was found in the 100,000×g (ribosomal) pellet. DNA-PK preparations typically were made from 200 ml of S10 supernatant that had been derived from approximately 10^10 cells. All steps were performed at 4° C. unless indicated otherwise.
Phosphorylation reactions were performed in a 20- or 40-μl final volume as previously described by Chen, et al., J. Virol., 10:5131-5140 (1991) and Lees-Miller, et al., Mol. Cell. […] In particular, in addition to synthetic peptide substrates or protein substrates, the assays contained 50 mM HEPES (pH 7.5), 100 mM KCl, 10 mM MgCl2, 2 mM EGTA, 0.1 mM EDTA and 0.125 mM ATP containing [^32P]ATP at 0.2 mCi/ml. […] Assays were started by adding 1 μl of kinase sample. Incubations were at 30° C. for 7 min.
For determinations of kinetic constants, the ATP concentration was 0.5 mM. When present, hsp90 was included at 0.5 mg/ml. Assay mixtures were preincubated at 30° C. for 2 min before addition of 0.1 to 0.5 μg (protein) of the DNA-PK preparation.
In particular, kinase reactions were stopped by adding an equal volume of 30% acetic acid, and portions of the acidified reaction were spotted on 2- by 2-cm squares of P-81 paper (Whatman, Inc., Clifton, N.J.). […] The P-81 squares were then transferred to scintillation vials containing 3.5 ml of water, and bound radioactivity was determined from the Cerenkov radiation. Enzyme activity was calculated from triplicate determinations, using the specific activity of the ATP and the protein concentration, which was determined by the Bio-Rad dye-binding assay (Bio-Rad (Bradford) Protein Assay Kit 1, Cat. No. 500-001, Bio-Rad Laboratories, Hercules, Calif.), using bovine serum albumin as the standard. […] The kinetic constants, Km and Vmax for each peptide sequence were calculated from plots of 1/[S] versus 1/V, the values reported are averages of at least two independent determinations.

## EPPLSEQAFADLWKK [SEQ ID NO: 20]
DNA-PK [1]
  inhibition of phosphorylation of (SEQ ID NO: 8): None of these peptides significantly inhibited the phosphorylation
DNA-PK [2]; P10S, + calf thymus DNA 10 μg/ml
  PO4 incorporated + DNA: 0.0 nmol/min/ml of extract
DNA-PK [2]; P10S, without DNA
  PO4 incorporated − DNA: 0.0 nmol/min/ml of extract
DNA-PK [2]; S10, + calf thymus DNA 10 μg/ml
  PO4 incorporated + DNA: 0.0 nmol/min/ml of extract
DNA-PK [2]; S10, without DNA
  PO4 incorporated − DNA: 0.0 nmol/min/ml of extract
DNA-PK [3]; Hamster CHO, P10S
  Specific Activity + DNA: 0.06 nmol PO4/min/mg protein
  Specific Activity − DNA: 0.0 nmol PO4/min/mg protein
DNA-PK [3]; Hamster CHO, S10
  Specific Activity + DNA: 0.01 nmol PO4/min/mg protein
  Specific Activity − DNA: 0.0 nmol PO4/min/mg protein
DNA-PK [3]; Hamster V79, P10S
  Specific Activity + DNA: 0.05 nmol PO4/min/mg protein
  Specific Activity − DNA: 0.05 nmol PO4/min/mg protein
DNA-PK [3]; Hamster V79, S10
  Specific Activity + DNA: 0.0 nmol PO4/min/mg protein
  Specific Activity − DNA: 0.0 nmol PO4/min/mg protein
DNA-PK [4]
  substrate activity for DNA-PK (in words): negligible substrate activity; also recorded: not phosphorylated by DNA-PK
DNA-PK [4]; each peptide at 200 μM, calf thymus DNA 10 μg/ml, 30° C.
  PO4 incorp.: 0 pmol/min/μg of DNA-PK
